This assay addresses T1, BjPutA (proline utilization A) (Bradyrhizobium diazoefficiens, UniProt Q89E26, D778Y).
T1 sequence (Q89E26 1-999 D778Y): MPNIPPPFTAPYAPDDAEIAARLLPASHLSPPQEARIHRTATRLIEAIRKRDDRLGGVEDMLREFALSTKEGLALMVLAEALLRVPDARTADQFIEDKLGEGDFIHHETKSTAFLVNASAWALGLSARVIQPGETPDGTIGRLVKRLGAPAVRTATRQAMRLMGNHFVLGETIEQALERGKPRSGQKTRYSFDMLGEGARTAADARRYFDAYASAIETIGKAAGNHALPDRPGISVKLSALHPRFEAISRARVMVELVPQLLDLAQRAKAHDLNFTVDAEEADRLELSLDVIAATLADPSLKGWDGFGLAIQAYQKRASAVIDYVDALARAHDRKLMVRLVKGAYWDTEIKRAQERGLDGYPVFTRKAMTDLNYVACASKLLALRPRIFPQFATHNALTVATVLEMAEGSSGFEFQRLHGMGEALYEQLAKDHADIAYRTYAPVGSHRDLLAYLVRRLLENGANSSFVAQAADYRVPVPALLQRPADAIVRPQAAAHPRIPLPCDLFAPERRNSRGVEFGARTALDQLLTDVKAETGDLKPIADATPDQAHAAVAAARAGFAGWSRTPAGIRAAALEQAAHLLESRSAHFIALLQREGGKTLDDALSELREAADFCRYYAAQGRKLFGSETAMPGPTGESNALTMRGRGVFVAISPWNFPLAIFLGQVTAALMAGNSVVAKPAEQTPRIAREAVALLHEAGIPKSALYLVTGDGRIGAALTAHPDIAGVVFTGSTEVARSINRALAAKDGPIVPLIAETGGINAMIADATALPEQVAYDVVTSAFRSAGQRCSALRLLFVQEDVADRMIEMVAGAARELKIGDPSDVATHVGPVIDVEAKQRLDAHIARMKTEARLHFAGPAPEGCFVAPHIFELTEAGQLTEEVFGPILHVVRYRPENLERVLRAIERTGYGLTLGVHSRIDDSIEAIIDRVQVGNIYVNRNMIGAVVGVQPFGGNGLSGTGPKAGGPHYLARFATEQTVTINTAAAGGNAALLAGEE
Nature of the assay: intrinsic tryptophan fluorescence quenching. It counts as binding.

As a reminder, the Kd is the equilibrium constant for the complex coming apart. Read a high Kd as a looser complex.

`NC(=O)c1ccc[n+]([C@@H]2O[C@H](COP(=O)(O)OP(=O)(O)OC[C@H]3O[C@@H](n4cnc5c(N)ncnc54)[C@H](O)[C@@H]3O)[C@@H](O)[C@H]2O)c1` [NAD^+] had a dissociation constant (Kd) of 670 ± 40 nM.

For the origin of these results see paper PMC4131897 (Biochemistry, 2014).
